Reference: US11999695B2, “YAP1 inhibitors that target the interaction of YAP1 with OCT4” (H. LEE MOFFITT CANCER CENTER AND RESEARCH INSTITUTE, INC., priority 2016, dated 2024)
pIC50: −log10 of the molar value.

Legend:
[1] = test system: cisplatin-insensitive SP cells from H1650 cells; experiment: Sphere formation of cisplatin-insensitive SP cells (FIG. 30); type: cell-based; settings: YAP1 inhibitors 2 uM, cisplatin 5 uM
Protocol: One feature of cancer stem cells is their drug resistance. Sphere formation of SP cells from H1650 cells was conduced in the presence of cisplatin; stem-like SP cells can self-renew and form spheres in stem-cell selective media and on low-adherence plates, even in the presence of 5 uM cisplatin (top right image).

[2] = test system: stem-like side-population (SP) cells; experiment: Sphere-formation assay, self-renewal of side-population cells (FIG. 18-21); type: cell-based; settings: SP cells in low-adherence plates, stem-cell selective media, 10 days
Protocol: FIG. 18 is a group of cell micrographs showing inhibition of self-renewals by selected compounds in a sphere formation assay. Self-renewal of stem-like side-population (SP) cells was measured by a sphere-formation assay. Essentially, side-population cells were sorted by flow cytometry based on Hoechst 33342 dye exclusion as described in our publications. Isolated SP cells were grown in low-adherence plates in stem-cell selective media for 10 days (Singh and Chellappan, 2012, Bora-Singhal et al., 2015 etc). Self-renewal ability of the stem-like cells can be assessed by the formation of spheres under these conditions; non-stem cells cannot self-renew and form spheres.
The assay is conducted for 10 days, and the number of spheres larger than 50 μm in diameter is counted.

Sox2 [3] = experiment: Western blot of Sox2 expression (FIG. 17); type: cell-based; settings: H1650 and A549 cells; 10 uM; 72 hours
Protocol: (§1) FIG. 17 is a group of gel images showing compounds SR2-046, SR2-051, and SR2-052 reduce Sox2, c-Myc expression in H165 and A549 cells. Cells were treated for 72 hours with the indicated compounds. A western blot showing the reduction of Sox2 expression in H1650 cells and in A549 cells after treatment with 10 uM of the drugs for 72 hours. There was a reduction in the levels of C-myc and phoshodiesterate kinase 2 as well. Western blotting was done using our standard protocols, as published in Bora-Singhal et al., 2015.

YAP1:OCT4 = YAP1:OCT4 (Homo sapiens, UniProt P46937); experiment: In vitro YAP1:OCT4 ELISA binding assay; settings: YAP1:OCT4 disruption
Protocol: Activities of Compounds in the In Vitro YAP1:OCT4 ELISA Binding Assay
Selected compounds were assayed in a YAP1:OCT4 binding assay.

[4] = test system: phoshodiesterate kinase 2; experiment: Western blot of phoshodiesterate kinase 2 levels (FIG. 17); type: cell-based; settings: 10 uM; 72 hours
Protocol: as §1

c-Myc = experiment: Western blot of c-Myc expression (FIG. 17); type: cell-based; settings: H1650 and A549 cells; 10 uM; 72 hours
Protocol: as §1

[5] = test system: methotrexate insensitive H146 small-cell lung carcinoma cells; experiment: Sphere formation of methotrexate-insensitive cells (FIG. 31); type: cell-based; settings: YAP1 inhibitors 2 uM, methotrexate 2.5 uM
Protocol: A similar experiment, where sphere formation of small-cell lung cancer cells, which are insensitive to methotrexate, was inhibited by YAP1 inhibitors. Sphere formation of SP cells from H146 small-cell lung carcinoma cells was conduced in the presence of 2.5 uM methotrexate; stem-like cells can self-renew and form spheres in stem-cell selective media and on low-adherence plates, even in the presence of 2.5 uM methotrexate.

[6] = test system: A549 lung adenocarcinoma cells; experiment: Cytokine array on A549 cells (FIG. 39); type: cell-based
Text: FIG. 39 is a graph showing results from a cytokine array performed on A549 cells treated with SR2-033.

[7] = test system: primary cancer associated fibroblasts; experiment: Cytokine array (FIG. 40); type: cell-based
binding of Oct4 to YAP1 = molecular target: T1, binding of Oct4 to YAP1 (Homo sapiens, UniProt P46937); experiment: Immunoprecipitation-Western blot of Oct4-YAP1 binding (FIG. 15); type: cell-based; settings: 5 μM, 72 hours
T1 construct: Lysates were prepared from the cells, and immunoprecipitated with an antibody to OCt4; endogenous in cells; host or cells: A549 and H1650 cells
Protocol: FIG. 15 is a group of gel images showing peptidomimetic compounds SR2-022, SR2-030, and SR2-033 reduced YAP1-Oct4 interaction as detected by IP-WB. An immunoprecipitation-Western blot experiment was conducted to assess if the indicated compounds could disrupt the binding of Oct4 to YAP1. IP-western blots were conducted using the protocols described in Bora-Singhal et al, 2015. Essentially, cells were treated with 5 μM of the indicated compounds for 72 hours. Lysates were prepared from the cells, and immunoprecipitated with an antibody to OCt4, or a control IgG. Lysates as well as the immunoprecipitates were resoled by a polyacrylamide gel and a western blot was conducted using an antibody to YAP1.

Sox2 [8] = experiment: Sox2 protein expression, gel images (FIG. 16); type: cell-based; settings: adenocarcinoma cells
Text: FIG. 16 is a group of gel images showing Sox2 protein expression was reduced by SR-2033 in adenocarcinoma cells.

YAP1:OCT4, sequence (P46937 whole entry): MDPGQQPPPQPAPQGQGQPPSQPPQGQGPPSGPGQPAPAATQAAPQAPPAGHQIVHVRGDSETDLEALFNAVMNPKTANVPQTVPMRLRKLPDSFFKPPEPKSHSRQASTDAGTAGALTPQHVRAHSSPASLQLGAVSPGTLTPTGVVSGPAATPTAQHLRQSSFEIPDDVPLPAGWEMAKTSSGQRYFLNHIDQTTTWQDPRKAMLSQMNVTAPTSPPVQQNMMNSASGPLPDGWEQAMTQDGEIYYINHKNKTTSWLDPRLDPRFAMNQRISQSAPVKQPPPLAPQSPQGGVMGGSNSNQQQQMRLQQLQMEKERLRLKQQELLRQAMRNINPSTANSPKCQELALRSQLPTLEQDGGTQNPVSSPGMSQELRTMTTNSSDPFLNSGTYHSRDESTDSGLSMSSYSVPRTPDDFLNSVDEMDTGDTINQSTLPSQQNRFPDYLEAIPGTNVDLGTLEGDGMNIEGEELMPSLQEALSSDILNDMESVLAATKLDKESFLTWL
T1 sequence (P46937 whole entry): as above

Compound	Sox2 expression (western blot) (Sox2 [3])	pIC50 (YAP1:OCT4)	levels of phoshodiesterate kinase 2 (western blot) [4]	c-Myc expression (western blot) (c-Myc)	other results
N.N.[Cl][Pt][Cl] [Cisplatin]	–	–	–	–	self-renewal (sphere formation) of dissociated cisplatin-insensitive spheres [1]: allowed self-renewal and formation of colonies; number of spheres [2]: no effect
COC(=O)[C@H](Cc1ccc(OCc2ccccc2)cc1)NC(=O)CC1CCN(C(=O)CCCc2ccccc2)CC1 [SR2-046, Methyl (S)-3-(4-(benzyloxy)phenyl)-2-(2-(1-(4-phenylbutanoyl)piperidin-4-yl)acetamido)-propanoate]	reduce	> 5.00	reduction	reduce	–
CN(Cc1cnc2nc(N)nc(N)c2n1)c1ccc(C(=O)N[C@@H](CCC(=O)O)C(=O)O)cc1 [methotrexate]	–	–	–	–	self-renewal (sphere formation) of dissociated methotrexate-insensitive spheres [5]: allowed self-renewal and formation of colonies
COC(=O)[C@H](Cc1ccc(OCc2ccccc2)cc1)NC(=O)CC1CCN(C(=O)Cc2ccc(NC(=O)OC(C)(C)C)cc2)CC1 [SR2-052, Methyl (S)-3-(4-(benzyloxy)phenyl)-2-(2-(1-(2-(4-((tert-butoxycarbonyl)amino)phenyl)acetyl)piperidin-4-yl)acetamido)propanoate]	reduce	> 5.00	reduction	reduce	–
COC(=O)[C@H](Cc1ccc(OCc2ccccc2)cc1)NC(=O)CC1CCN(C(=O)CCc2ccc(C#N)cc2)CC1 [SR2-033, Methyl (S)-3-(4-(benzyloxy)phenyl)-2-(2-(1-(3-(4-cyanophenyl)propanoyl)piperidin-4-yl)acetamido)propanoate]	–	> 5.00	–	–	levels of secreted cytokines (cytokine array) [6]: altered; levels of secreted cytokines (cytokine array) [7]: altered; YAP1-Oct4 interaction detected by IP-WB (binding of Oct4 to YAP1; A549 cells): completely abolished; YAP1-Oct4 interaction detected by IP-WB (binding of Oct4 to YAP1; H1650 cells): significantly reduced; Sox2 protein expression (Sox2 [8]): reduced
COC(=O)[C@H](Cc1ccc(OCc2ccccc2)cc1)NC(=O)CC1CCN(C(=O)c2ccc(NC(=O)OC(C)(C)C)cc2)CC1 [SR2-051, Methyl (S)-3-(4-(benzyloxy)phenyl)-2-(2-(1-(4-((tert-butoxycarbonyl)amino)benzoyl)piperidin-4-yl)acetamido)propanoate]	reduce	> 5.00	reduction	reduce	–
